# In patent publication US12391723B2, “Steroids and methods of manufacture” (Trustees of Dartmouth College, priority 2017, dated 2025):
# Where “and” joins values, the source holds several entries; their conditions need not be identical. Identical values can stand only once.
# Experiments:
# MDA-MB-231 [1] = assay: In vitro growth inhibition (Hoechst 33258 DNA fluorescence, 6 days); format: cell-based; settings: Homo sapiens, MDA-MB-231, 144 h, concentration that inhibited growth by 50%, 2-fold dilutions from 40 μM
# Description: (§1) Fifteen (15) exemplary compounds were investigated for growth inhibition in two cancer cell lines (one for breast and one for pancreatic cancer: MDA-MB-231 and AsPC-1, respectively).
# (§2) Procedure: Inhibition of cell growth was accessed by plating 1000 cells per well of a 96-well plate. The following day, compounds were added as 2-fold dilutions from 40 μM (8 wells/concentration). After 6 days, cells were washed, lysed and stained with Hoechst 33258. Fluorescence was read on a microplate spectrofluorometer. Results are expressed as the concentration that inhibited growth by 50% (GI50). See Rao, J., Otto, W. R. Fluorometric DNA assay for cell growth estimation. Anal Biochem. 1992; 207:186-192.
# AsPC-1 [2] = assay: as above; format: cell-based; settings: Homo sapiens, ASPC1, 144 h, concentration that inhibited growth by 50%, 2-fold dilutions from 40 μM
# Description: as §1, §2
# MDA-MB-231 [3] = assay: Growth inhibition by Compound 39 (DNA fluorescence, FIG. 3D); format: cell-based; settings: Homo sapiens, read-out: calculated GI50 against MDA-MB-231
# Description: (§3) The following day, ent-steroidal compound 39 was added in 2-fold dilutions (8 wells/concentration). After 7 days growth, cells were lysed and analyzed for total DNA content as described in Montano et al. (See, Montano, R., et al., Mol. Cancer Therap., 11:427-438 [2012]).
# (§4) Compound 39 was also investigated for growth inhibition in three cancer cell lines: MDA-MB-231, AsPC-1, and U2OS (human osteosarcoma).
# AsPC-1 [4] = assay: as above; format: cell-based; settings: Homo sapiens, ASPC1, read-out: calculated GI50 against AsPC-1
# Description: as §3, §4
# [5] = test system: U2OS (human osteosarcoma); assay: as above; format: cell-based; settings: read-out: calculated GI50 against U2OS
# Description: as §3, §4
# [6] = test system: three human cancer cell lines; assay: Growth inhibition by compound 39, total DNA content after 7 days growth; format: cell-based; settings: 168 h, range across three human cancer cell lines, read-out: 50% inhibitory concentrations
# Description: as §3
# ER-β = ER-β (Homo sapiens, UniProt Q92731); assay: ER-β agonist activity; format: cell-based
# [7] = test system: cancer cell lines (MDA-MB-231, AsPC-1, and A549); assay: Cell cycle analysis and microscopic analysis of cancer cells treated with Compound 205b; format: cell-based, human; settings: at 0.8-5 μM
# Description: (§5) Compound 205b has been identified as a uniquely potent and selective agonist of ER-β, having an EC50=20 nM for ER-β and an EC50 over 3000 nM for ER-α.
# ER-α = target: T1, ER-α (Homo sapiens, UniProt P03372); assay: ER-α agonist activity; format: cell-based
# T1 sequence (P03372 1-595): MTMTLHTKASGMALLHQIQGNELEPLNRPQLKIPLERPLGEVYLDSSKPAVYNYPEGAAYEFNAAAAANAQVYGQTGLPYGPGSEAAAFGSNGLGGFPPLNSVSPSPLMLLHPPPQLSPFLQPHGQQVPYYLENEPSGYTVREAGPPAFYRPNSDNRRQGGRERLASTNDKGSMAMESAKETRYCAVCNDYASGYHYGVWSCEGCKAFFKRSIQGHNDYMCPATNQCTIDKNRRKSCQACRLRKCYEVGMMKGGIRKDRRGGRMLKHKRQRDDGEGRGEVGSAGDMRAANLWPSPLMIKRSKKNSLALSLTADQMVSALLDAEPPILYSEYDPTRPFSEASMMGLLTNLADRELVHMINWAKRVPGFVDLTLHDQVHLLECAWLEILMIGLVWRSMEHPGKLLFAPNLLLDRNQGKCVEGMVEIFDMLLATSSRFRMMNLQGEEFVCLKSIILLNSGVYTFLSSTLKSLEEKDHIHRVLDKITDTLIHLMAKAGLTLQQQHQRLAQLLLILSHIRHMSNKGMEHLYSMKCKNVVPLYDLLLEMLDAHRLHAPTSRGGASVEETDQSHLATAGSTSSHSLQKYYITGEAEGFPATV
# [8] = test system: MDA-MB-231, AsPC-1, and A549; assay: Growth of several cancer cell lines incubated with Compound 205b; format: cell-based, human; settings: range across MDA-MB-231, AsPC-1, and A549
# Description: as §2, §5
# CLK-4 = CLK-4 (Homo sapiens, UniProt Q9HAZ1); assay: Affinity to CLK-4; format: binding; settings: member of the family of CDC-2-like kinases
# Chain of CLK-4 (Q9HAZ1 whole entry, species assumed): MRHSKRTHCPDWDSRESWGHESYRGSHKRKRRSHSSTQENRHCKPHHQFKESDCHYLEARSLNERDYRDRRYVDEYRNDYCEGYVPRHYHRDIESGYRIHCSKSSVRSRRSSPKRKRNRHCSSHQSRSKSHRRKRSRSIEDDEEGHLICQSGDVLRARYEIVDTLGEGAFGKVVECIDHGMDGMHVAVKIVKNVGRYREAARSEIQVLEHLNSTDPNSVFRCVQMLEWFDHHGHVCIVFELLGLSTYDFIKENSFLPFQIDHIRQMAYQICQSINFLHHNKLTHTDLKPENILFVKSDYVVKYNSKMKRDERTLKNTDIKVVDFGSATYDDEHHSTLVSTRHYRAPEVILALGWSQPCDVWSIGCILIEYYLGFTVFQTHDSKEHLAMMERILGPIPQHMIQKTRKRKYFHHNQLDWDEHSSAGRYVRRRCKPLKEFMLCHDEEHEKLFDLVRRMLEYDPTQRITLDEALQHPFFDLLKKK
# Chain of ER-β (Q92731 whole entry, species assumed): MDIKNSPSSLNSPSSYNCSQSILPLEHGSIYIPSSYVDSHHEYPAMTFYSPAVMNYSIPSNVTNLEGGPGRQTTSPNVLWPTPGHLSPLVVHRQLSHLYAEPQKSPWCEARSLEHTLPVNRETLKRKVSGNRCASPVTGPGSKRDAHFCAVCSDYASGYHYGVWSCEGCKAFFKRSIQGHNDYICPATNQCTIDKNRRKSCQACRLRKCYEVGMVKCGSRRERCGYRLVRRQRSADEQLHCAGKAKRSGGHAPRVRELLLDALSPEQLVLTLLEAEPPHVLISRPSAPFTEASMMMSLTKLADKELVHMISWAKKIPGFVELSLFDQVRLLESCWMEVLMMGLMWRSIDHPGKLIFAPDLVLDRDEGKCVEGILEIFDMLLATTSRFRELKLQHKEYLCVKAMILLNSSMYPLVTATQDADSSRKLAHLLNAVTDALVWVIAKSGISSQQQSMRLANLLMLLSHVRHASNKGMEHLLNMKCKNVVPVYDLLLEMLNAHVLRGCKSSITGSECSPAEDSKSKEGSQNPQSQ
SMILES,GI50 (MDA-MB-231 [1]) [µM],GI50 (AsPC-1 [2]) [µM],also measured
C[C@]12CCc3c(ccc4ccc(O)cc34)[C@@H]1C[C@H](O)C2 [Compound 207b],20,40,
COc1ccc2c(Br)cc3c(c2c1)CC[C@]1(C)C[C@H](O)C[C@@H]31 [Compound 201a],15,15,
COc1ccc2ccc3c(c2c1)CC[C@]1(C)C[C@@H](O)C[C@@H]31 [Compound 206b],30,40,
COc1ccc2c(C#Cc3ccccc3)cc3c(c2c1)CC[C@]1(C)C[C@H](O)C[C@@H]31 [Compound 201c],20,30,
C[C@@]12CC=C3C(=CC(=O)c4ccccc43)[C@H]1C[C@H](O)C2 [Compound 39],,,GI50 (MDA-MB-231 [3]): 0.32 µg/mL and 1.2 µM; GI50 (AsPC-1 [4]): ~4 µM; GI50 [5]: ~4 µM; IC50 [6]: 1.2 µM to 4 µM and 0.32 µg/mL to 1.07 µg/mL
C[C@]12CCc3c(cc(C#Cc4ccccc4)c4ccc(O)cc34)[C@@H]1C[C@H](O)C2 [Compound 207c],5,15,
C[C@]12CCc3c(cc(F)c4ccc(O)cc34)[C@@H]1C[C@@H](O)C2 [Compound 208b],4,8,
COc1ccc2c(F)cc3c(c2c1)CC[C@]1(C)C[C@@H](O)C[C@@H]31 [Compound 208c],5,25,
COc1ccc2c(F)cc3c(c2c1)CC[C@]1(C)C[C@H](O)C[C@@H]31 [Compound 208a],25,30,
C[C@]12CCc3c(cc(C#Cc4ccccc4)c4ccc(O)cc34)[C@@H]1C[C@@H](O)C2 [Compound 205c],8,9,
C[C@]12CCc3c(ccc4ccc(O)cc34)[C@@H]1C[C@@H](O)C2 [Compound 205b],0.8,2,EC50 (ER-β): 0.02 µM; mitotic arrest by microscopic analysis [7]: cells arrested in mitosis at prometaphase; cell cycle arrest ([7]; parallel experiments): arrested cells in G2/M phase of the cell cycle; EC50 (ER-α): > 3 µM; concentration at which growth was inhibited [8]: 0.8 to 5 µM; Kd (CLK-4): ~0.35 µM
C[C@]12CCc3c(cc(Br)c4ccc(O)cc34)[C@@H]1C[C@H](O)C2 [Compound 207a],30,30,
COc1ccc2c(C#Cc3ccccc3)cc3c(c2c1)CC[C@]1(C)C[C@@H](O)C[C@@H]31 [Compound 206c],15,15,
COc1ccc2ccc3c(c2c1)CC[C@]1(C)C[C@H](O)C[C@@H]31 [Compound 201b],25,30,
COc1ccc2c(Br)cc3c(c2c1)CC[C@]1(C)C[C@@H](O)C[C@@H]31 [Compound 206a],20,20,
C[C@]12CCc3c(cc(Br)c4ccc(O)cc34)[C@@H]1C[C@@H](O)C2 [Compound 205a],17,10,
